The nature of one data set: Solubility. The data set is classed as physicochemical. The following applies: in the presence of […] DMSO.
The target in the next data set is ALDH1A1 (Homo sapiens (Human), UniProt P00352). Nature of the data set: ALDH1A1 dehydrogenase activity / IC50 determination (propionaldehyde substrate). The note with it: up to 250 μM. The data set is classed as biochemical.
The target in a further data set is ALDH2 (Homo sapiens (Human), UniProt P05091). Nature of the data set: ALDH2 dehydrogenase activity / IC50 determination (propionaldehyde substrate). The following applies: up to 250 μM. The data set is classed as biochemical.
The target of data set [1] is ALDH3A1 activity in SF767 cell lysates (Homo sapiens (Human), UniProt P30838). The data set is classed as biochemical. The note with it: 50 μM CB29.
Procedure: (§2) A549, SF767 and CCD13Lu cell lysates were collected exactly the same way as described before and 50 μg of cell lysate was used in the activity assay. […] All assays contained 1% (v/v) DMSO.
(§3) Cell lysates were obtained from A549, SF767 and CCD13Lu cell lines. In summary, cells (A549, SF767 and CCD13Lu) were washed with ice cold PBS to remove residual media. 400 μL of RIPA buffer (Cell signaling technologies) containing 1 mM PMSF (Sigma Aldrich) was added to each 10 cm dish. Plates were incubated on ice for 5 minutes, scraped and lysates were collected. Lysates were centrifuged for 10 minutes at 16,000×G in a micro-centrifuge at 4° C. Protein concentrations were measured using the Bradford reagent (Biorad Laboratories). 50 μg of cell lysate was used in the activity assay. […] All assays, including the controls, contained 1% (v/v) DMSO.
Data set [2] has as its target T1, ALDH3A1 (Homo sapiens (Human), UniProt P30838). The data set is classed as biochemical. The following applies: 50 μM CB29.
Procedure: as §2, §3
The next data set relates to SF767 cells. Nature of the data set: MTT assay for cell proliferation / mafosfamide sensitivity, SF767. The data set is classed as cell-based. (In general: Tetrazolium dyes change colour on reduction, which living cells bring about.)
Data set [3] concerns the target ALDH3A1 activity in A549 cell lysates (Homo sapiens (Human), UniProt P30838). The data set is classed as biochemical. The note with it: 50 μM CB29.
Procedure: as §2, §3
In the next data set the test system is CCD13Lu cells. The experiment in a line: MTT assay for cell proliferation / mafosfamide sensitivity, CCD13Lu. The data set is classed as cell-based. The note with it: 10 μM compound + mafosfamide, FIG. 13c.
The target of data set [4] is T1, ALDH3A1. The data set is classed as biochemical. The following applies: wt ALDH3A1.
Procedure: (§4) All reactions were initiated by the addition of the aldehyde substrate. The inhibition curves were fit to the Logistic four parameter IC50 equation using the SigmaPlot (v11, StatSys). We characterized the mode of inhibition using steady-state kinetics through co-variation of inhibitor and substrate concentrations. The steady state kinetic measurements were performed in 100 mM Na2HPO4 buffer, pH 7.5. […] In all cases—including the control reactions lacking inhibitors, the final reaction mixture contained 2% (v/v) DMSO. The reaction was initiated by addition of substrate and the initial rate of product formation was determined on a Beckman DU-640. All data were fit to the non-linear velocity expressions for competitive, non-competitive, mixed-type non-competitive and uncompetitive inhibition^[40]. Appropriateness of the inhibition model was determined through analysis of goodness-of-fit and the residuals of those fits. Lineweaver-Burke plots were created using SigmaPlot (v11, StatSys) to visualize the inhibition patterns. All data represent the average of three independent experiments utilizing triplicate assays at each concentration point.
Reaction was initiated by the addition of the aldehyde substrate. […] The inhibition curves were fit to the Logistic four parameter IC50 equation using the SigmaPlot (v11, StatSys). Steady state kinetic experiments were performed by co-varying inhibitor and substrate concentrations. The steady state kinetic measurements were performed in 100 mM Na2HPO4 buffer, pH 7.5.
The initial rate of product formation was determined on a Beckman DU-640. All data were fit to the non-linear velocity expressions for competitive, non-competitive, mixed-type non-competitive and uncompetitive inhibition^46. Appropriateness of the inhibition model was determined through analysis of goodness-of-fit and the residuals of those fits. Lineweaver-Burke plots were created using SigmaPlot (v11, StatSys) to visualize the inhibition patterns. All data represent the average of three independent experiments utilizing triplicate assays at each concentration point.
A further data set deals with ALDH3A1 Q122W mutant (Homo sapiens (Human), UniProt P30838, Q123W). The protocol: (§1) These two mutant proteins were purified exactly the same way as was ALDH3A1. […] Kinetic experiments were performed exactly the same way as the wild type (WT) enzyme.
The next data set addresses ALDH3A1 Q122A mutant (Homo sapiens (Human), UniProt P30838, Q123A). The protocol: as §1

Read-outs that look alike come from different tables or passages of the source.

ALDH3A1 Q122W mutant, sequence (P30838 whole entry Q123W): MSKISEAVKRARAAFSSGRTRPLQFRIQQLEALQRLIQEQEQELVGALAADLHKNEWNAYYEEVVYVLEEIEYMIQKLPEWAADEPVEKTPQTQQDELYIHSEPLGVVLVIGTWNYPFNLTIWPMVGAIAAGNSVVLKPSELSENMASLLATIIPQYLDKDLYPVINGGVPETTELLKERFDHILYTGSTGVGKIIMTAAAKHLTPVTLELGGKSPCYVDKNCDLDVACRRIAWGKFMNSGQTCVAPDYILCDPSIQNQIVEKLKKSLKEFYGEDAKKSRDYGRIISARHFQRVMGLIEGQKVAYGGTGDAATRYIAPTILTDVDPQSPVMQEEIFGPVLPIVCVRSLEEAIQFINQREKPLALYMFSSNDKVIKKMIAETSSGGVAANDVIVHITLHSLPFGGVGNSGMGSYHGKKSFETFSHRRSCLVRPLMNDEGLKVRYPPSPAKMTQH
T1 sequence (P30838 whole entry): as the sequence (P30838 whole entry Q123W) above, with W123Q counted along it
ALDH3A1 Q122A mutant, sequence (P30838 whole entry Q123A): as the sequence (P30838 whole entry Q123W) above, with W123A counted along it
ALDH2, sequence (P05091 18-517): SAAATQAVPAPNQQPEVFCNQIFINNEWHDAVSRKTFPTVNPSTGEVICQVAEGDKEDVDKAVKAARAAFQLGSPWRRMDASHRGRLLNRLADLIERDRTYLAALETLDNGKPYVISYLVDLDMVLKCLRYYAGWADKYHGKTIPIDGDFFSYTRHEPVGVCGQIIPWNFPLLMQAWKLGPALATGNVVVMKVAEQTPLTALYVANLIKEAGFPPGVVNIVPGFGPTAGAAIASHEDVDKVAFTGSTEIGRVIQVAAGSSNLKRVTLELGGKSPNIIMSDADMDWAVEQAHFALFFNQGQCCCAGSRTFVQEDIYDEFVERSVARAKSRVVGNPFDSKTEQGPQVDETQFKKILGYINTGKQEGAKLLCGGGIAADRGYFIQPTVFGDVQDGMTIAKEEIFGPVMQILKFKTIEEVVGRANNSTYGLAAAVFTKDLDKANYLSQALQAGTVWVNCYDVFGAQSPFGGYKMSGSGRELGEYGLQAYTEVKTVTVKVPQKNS
ALDH3A1 activity in A549 cell lysates, sequence (P30838 whole entry): as the sequence (P30838 whole entry Q123W) above, with W123Q counted along it
ALDH3A1 activity in SF767 cell lysates, sequence (P30838 whole entry): as the sequence (P30838 whole entry Q123W) above, with W123Q counted along it
ALDH1A1, sequence (P00352 whole entry): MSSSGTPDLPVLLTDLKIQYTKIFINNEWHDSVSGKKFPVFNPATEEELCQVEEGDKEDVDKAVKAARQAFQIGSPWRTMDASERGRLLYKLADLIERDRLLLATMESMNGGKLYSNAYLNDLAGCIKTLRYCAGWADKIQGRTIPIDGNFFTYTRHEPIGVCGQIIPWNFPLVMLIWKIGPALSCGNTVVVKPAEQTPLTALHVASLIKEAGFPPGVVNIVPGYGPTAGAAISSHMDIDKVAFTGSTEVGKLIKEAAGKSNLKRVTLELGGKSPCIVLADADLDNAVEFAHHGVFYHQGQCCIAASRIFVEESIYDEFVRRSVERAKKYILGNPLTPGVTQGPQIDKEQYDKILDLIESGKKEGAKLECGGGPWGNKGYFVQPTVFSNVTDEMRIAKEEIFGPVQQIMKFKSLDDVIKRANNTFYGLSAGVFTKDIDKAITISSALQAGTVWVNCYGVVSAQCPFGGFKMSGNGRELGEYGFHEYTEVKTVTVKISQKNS
Procedure for ALDH1A1: The enzymatic activity of ALDH1A1, ALDH2 and ALDH3A1 were measured as described previously^[30,34,37,39].
as §4
(§5) ALDH1A1, ALDH2 and ALDH3A1 activities were measured as described earlier^33,44,45. […] Reaction was initiated by the addition of the aldehyde substrate. […] The inhibition curves were fit to the Logistic four parameter IC50 equation using the SigmaPlot (v11, StatSys). Steady state kinetic experiments were performed by co-varying inhibitor and substrate concentrations. The steady state kinetic measurements were performed in 100 mM Na2HPO4 buffer, pH 7.5.
Procedure for ALDH2: The enzymatic activity of ALDH1A1, ALDH2 and ALDH3A1 were measured as described previously^[30,34,37,39]. The specific activities of the purified proteins were 1.9, 3.8 and 32 μmole/min/mg for ALDH1A1, ALDH2 and ALDH3A1 respectively.
as §4, §5

`CC(=O)Nc1ccc(Nc2ccc(S(C)(=O)=O)cc2[N+](=O)[O-])cc1` [CB29, N-[4-{(4-(methylsulfonyl)-2-nitrophenyl)-4-amino}-phenyl]-acetamide]: in the data set “Solubility”, the “concentration of homogenous solution easily formed” value was at least 100 µM. Besides, the “inhibition toward ALDH1A1” value against ALDH1A1 is listed as under 5%. The “inhibition toward ALDH2” value at ALDH2 is recorded as under 5%. Also, the “decrease of ALDH3A1 activity in SF767 cell lysate” value in data set [1] is over 90%. The “decrease of activity of recombinant ALDH3A1” value at ALDH3A1 [2] is about 97%. In the data set with SF767 cells (50 μM inhibitor, 146±2 μM without inhibitor), the “ED50 value of mafosfamide in the presence of inhibitor, SF767” value came to 92 ± 4 µM. In data set [3], the “decrease of ALDH3A1 activity in A549 cell lysate” value was over 95%.
For `Cc1ccc(S(=O)(=O)n2c(C)nc3ccccc32)cc1` [Compound A10], the “effect with mafosfamide (in words), CCD13Lu” value with CCD13Lu cells was “decreased cell proliferation”. In addition, the “chemosensitivity to mafosfamide (in words), SF767” value in the data set with SF767 cells (10 μM inhibitor + mafosfamide) was “significantly increased chemosensitivity”.
For `CCC=O` [Propionaldehyde], the “Propionaldehyde Kcat/Km” value on ALDH3A1 [4] came to 830 ± 50 M⁻¹ s⁻¹; on ALDH3A1 [4] (listed as propionaldehyde), 830 M⁻¹ s⁻¹; at ALDH3A1 Q122W mutant it was 650 ± 83 M⁻¹ s⁻¹; on ALDH3A1 Q122W mutant (listed as propionaldehyde), 650 M⁻¹ s⁻¹; on ALDH3A1 Q122A mutant, 817 ± 50 M⁻¹ s⁻¹; at ALDH3A1 Q122A mutant (listed as propionaldehyde) it was 817 M⁻¹ s⁻¹. In addition, the Km at ALDH3A1 [4] (read-out: Propionaldehyde Km) was determined as 20.5 ± 0.272 mM; at ALDH3A1 Q122W mutant (read-out: Propionaldehyde Km), 5.36 ± 0.59 mM; on ALDH3A1 Q122A mutant (read-out: Propionaldehyde Km), 23.9 ± 1.99 mM.

A word on the Km: it is the concentration of substrate that gives half-maximal velocity.

Source of the values: patent US9320722B2, “Regulators of aldehyde dehydrogenase ALDH3A1 and related therapeutic methods” (Indiana University Research and Technology Corporation, priority 2013, dated 2016).
